Reference: patent US20260167656A1, “PHOSPHORAMIDATE COMPOUNDS AND USES THEREOF” (ALLORION THERAPEUTICS INC, priority 2022, published 2026)

What was measured:
[1] = test system: non-small cell lung cancer cell line H460; experiment: In vitro human cancer cell line cytotoxicity (proliferation) assay in H460, CellTiter-Glo, 72 hours; type: cell-based; settings: DMSO condition (no AKR1C3 inhibitor), read-out: CTG H460: Avg IC50 (nM) [Assay Condition: DMSO]
Summary of the method: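 H460 cells were seeded at 3×10^3 per well and grown 24 h at 37 °C, 5% CO2 before compound addition from 10 mM DMSO stocks. After 72 h further incubation, viability was measured by CellTiter-Glo, and IC50 values in nM were derived from the proliferation data.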

[2] = test system: non-small cell lung cancer cell line H460; experiment: H460 proliferation assay in the presence of 3 uM ASP9521 (AKR1C3 specific inhibitor); type: cell-based, human; settings: H460 cells, CellTiter-Glo, 72 hours, in the presence of 3 uM ASP9521 added 4 hours prior to compounds; read-out: CTG H460: Avg IC50 (nM) [Assay Condition: ASP9521]
Summary of the method: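 H460 cells pre-incubated 24 h, then exposed to compounds for 72 h at 37 °C, 5% CO2. Viability read by CellTiter-Glo. ASP9521 (3 uM, AKR1C3 inhibitor) added 4 h before compounds.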

[3] = Homo sapiens, NCI-H460, 72 h, H460 cells
[4] = Homo sapiens, NCI-H460, H460 cells

| SMILES | IC50 [1, 3] | IC50 [2] | IC50 ([1]; H460 cells) | IC50 [1, 4] |
| --- | --- | --- | --- | --- |
| Cc1ccnc(-c2ccc(Oc3c([N+](=O)[O-])ccc4c3CC[C@@H]4OP(=O)(N3CC3)N3CC3)cc2F)n1 [Example 267, (S)-4-(3-fluoro-4-(4-methylpyrimidin-2-yl)phenoxy)-5-nitro-2,3-dihydro-1H-inden-1-yl di(aziridin-1-yl)phosphinate] | < 10 nM | 639 nM |  |  |
| O=[N+]([O-])c1ccc2c(c1Oc1ccc(-c3ncc(F)cn3)c(F)c1)CC[C@@H]2OP(=O)(N1CC1)N1CC1 [Example 268, (S)-4-(3-fluoro-4-(5-fluoropyrimidin-2-yl)phenoxy)-5-nitro-2,3-dihydro-1H-inden-1-yl di(aziridin-1-yl)phosphinate] | < 10 nM | 1110 nM |  |  |
| O=[N+]([O-])c1ccc2c(c1Oc1ccc(-c3ncc(F)cn3)c(F)c1)CC[C@H]2OP(=O)(N1CC1)N1CC1 [Example 269, (R)-4-(3-fluoro-4-(5-fluoropyrimidin-2-yl)phenoxy)-5-nitro-2,3-dihydro-1H-inden-1-yl di(aziridin-1-yl)phosphinate] | 10 to 50 nM | 761 nM |  |  |
| O=[N+]([O-])c1ccc2c(c1Oc1ccc(-c3ccc(Cl)cc3)cc1)CC[C@H]2OP(=O)(N1CC1)N1CC1 [Example 270] |  | 5550 nM | 10 to 50 nM |  |
| Cn1cccc(-c2ccc(Oc3c([N+](=O)[O-])ccc4c3CC[C@H]4OP(=O)(N3CC3)N3CC3)cc2)c1=O [Example 271] |  | 920 nM | < 10 nM |  |
| O=[N+]([O-])c1ccc2c(c1Oc1ccc(-c3cccnc3)cc1)CC[C@H]2OP(=O)(N1CC1)N1CC1 [Example 272] |  | 3120 nM | 10 to 50 nM |  |
| Cn1cc(-c2ccc(Oc3c([N+](=O)[O-])ccc4c3CC[C@H]4OP(=O)(N3CC3)N3CC3)cc2)cn1 [Example 273] |  | 1400 nM | < 10 nM |  |
| O=[N+]([O-])c1ccc2c(c1Oc1ccc(-c3ccncc3)cc1)CC[C@H]2OP(=O)(N1CC1)N1CC1 [Example 274] |  | 7430 nM | 10 to 50 nM |  |
| O=[N+]([O-])c1ccc2c(c1Oc1ccc(-c3ccc(F)cn3)c(F)c1)CC[C@@H]2OP(=O)(N1CC1)N1CC1 [Example 275] | < 10 nM | 1350 nM |  |  |
| O=[N+]([O-])c1ccc2c(c1Oc1ccc(-c3ccc(F)cn3)cc1)CC[C@H]2OP(=O)(N1CC1)N1CC1 [Example 278] |  | 1560 nM | < 10 nM |  |
| Cc1cccc(-c2ccc(Oc3c([N+](=O)[O-])ccc4c3CC[C@H]4OP(=O)(N3CC3)N3CC3)cc2)n1 [Example 279] |  | 1310 nM | < 10 nM |  |
| Cc1noc(-c2ccc(Oc3c([N+](=O)[O-])ccc4c3CC[C@@H]4OP(=O)(N3CC3)N3CC3)cc2)n1 [Example 283] |  | 1460 nM | < 10 nM |  |
| O=[N+]([O-])c1ccc2c(c1Oc1ccc(-c3ncccn3)cc1)CC[C@H]2OP(=O)(N1CC1)N1CC1 [Example 284] |  | 1150 nM | < 10 nM |  |
| Cc1cncc(-c2ccc(Oc3c([N+](=O)[O-])ccc4c3CC[C@H]4OP(=O)(N3CC3)N3CC3)cc2)n1 [Example 285] |  | 754 nM | < 10 nM |  |
| Cc1nccc(-c2ccc(Oc3c([N+](=O)[O-])ccc4c3CC[C@H]4OP(=O)(N3CC3)N3CC3)cc2)n1 [Example 286] |  | 1870 nM | < 10 nM |  |
| O=[N+]([O-])c1ccc2c(c1Oc1ccc(-c3ccccn3)c(F)c1)CCC2OP(=O)(N1CC1)N1CC1 (stereo not shown) [Example 287] |  | 1010 nM | < 10 nM |  |
| N#Cc1ccc(-c2ccc(Oc3c([N+](=O)[O-])ccc4c3CCC4OP(=O)(N3CC3)N3CC3)cc2)nc1 (stereo not shown) [Example 288] |  | 1940 nM | < 10 nM |  |
| Cc1csc(-c2ccc(Oc3c([N+](=O)[O-])ccc4c3CCC4OP(=O)(N3CC3)N3CC3)cc2)n1 (stereo not shown) [Example 289] |  | 1090 nM | < 10 nM |  |

| SMILES | IC50 [1, 3] | IC50 [2] | IC50 ([1]; H460 cells) | IC50 [1, 4] |
| --- | --- | --- | --- | --- |
| O=[N+]([O-])c1ccc2c(c1Oc1ccc(-c3ccc(O)cn3)cc1)CC[C@@H]2OP(=O)(N1CC1)N1CC1 [Example 290] | < 10 nM | 274 nM |  |  |
| Cc1coc(-c2ccc(Oc3c([N+](=O)[O-])ccc4c3CC[C@@H]4OP(=O)(N3CC3)N3CC3)cc2)n1 [Example 291] | < 10 nM | 1970 nM |  |  |
| Cc1nsc(-c2cccc(Oc3c([N+](=O)[O-])ccc4c3CC[C@@H]4OP(=O)(N3CC3)N3CC3)c2)n1 [Example 292, (S)-4-(3-(3-methyl-1,2,4-thiadiazol-5-yl)phenoxy)-5-nitro-2,3-dihydro-1H-inden-1-yl di(aziridin-1-yl)phosphinate] |  | 1810 nM |  | < 10 nM |
| COc1ccc(Oc2c([N+](=O)[O-])ccc3c2CC[C@@H]3OP(=O)(N2CC2)N2CC2)cc1-c1ncc(F)cn1 [Example 293, (S)-4-(3-(5-fluoropyrimidin-2-yl)-4-methoxyphenoxy)-5-nitro-2,3-dihydro-1H-inden-1-yl di(aziridin-1-yl)phosphinate] | < 10 nM | 1050 nM |  |  |
| COc1ccc(Oc2c([N+](=O)[O-])ccc3c2CC[C@@H]3OP(=O)(N2CC2)N2CC2)cc1-c1ncccn1 [Example 294, (S)-4-(4-methoxy-3-(pyrimidin-2-yl)phenoxy)-5-nitro-2,3-dihydro-1H-inden-1-yl di(aziridin-1-yl)phosphinate] | < 10 nM | 1080 nM |  |  |
| Cc1cnc(-c2cccc(Oc3c([N+](=O)[O-])ccc4c3CC[C@@H]4OP(=O)(N3CC3)N3CC3)c2)o1 [Example 295, (S)-4-(3-(5-methyloxazol-2-yl)phenoxy)-5-nitro-2,3-dihydro-1H-inden-1-yl di(aziridin-1-yl)phosphinate] | 10 to 50 nM | 3620 nM |  |  |
| O=[N+]([O-])c1ccc2c(c1Oc1cccc(-c3ccccn3)c1)CC[C@H]2OP(=O)(N1CC1)N1CC1 [Example 296] | < 10 nM | 976 nM |  |  |
| O=[N+]([O-])c1ccc2c(c1Oc1cccc(-c3ccccn3)c1)CC[C@@H]2OP(=O)(N1CC1)N1CC1 [Example 297] | < 10 nM | 1300 nM |  |  |
| O=[N+]([O-])c1ccc2c(c1Oc1cccc(-c3ccc(F)cc3)c1)CC[C@@H]2OP(=O)(N1CC1)N1CC1 [Example 298] | < 10 nM | 1690 nM |  |  |
| Cn1cc(-c2cccc(Oc3c([N+](=O)[O-])ccc4c3CCC4OP(=O)(N3CC3)N3CC3)c2)cn1 (stereo not shown) [Example 300] |  | 1890 nM | < 10 nM |  |
| O=[N+]([O-])c1ccc2c(c1Oc1ccc(F)c(-c3ccc(F)cc3)c1)CC[C@H]2OP(=O)(N1CC1)N1CC1 [Example 306] |  | 1990 nM |  | < 10 nM |
| O=[N+]([O-])c1ccc2c(c1Oc1ccc(F)c(-c3ccc(F)cc3)c1)CC[C@@H]2OP(=O)(N1CC1)N1CC1 [Example 307] |  | 2360 nM |  | < 10 nM |
| O=[N+]([O-])c1ccc2c(c1Oc1cccc(C(F)(F)F)c1)CCC2OP(=O)(N1CC1)N1CC1 (stereo not shown) [Example 308] |  | 357 nM | < 10 nM |  |
| O=[N+]([O-])c1ccc2c(c1Oc1cccc(-c3cccnc3)c1)CC[C@H]2OP(=O)(N1CC1)N1CC1 [Example 309] | 10 to 50 nM | 3070 nM |  |  |
| O=[N+]([O-])c1ccc2c(c1Oc1cccc(-c3cccnc3)c1)CC[C@@H]2OP(=O)(N1CC1)N1CC1 [Example 310] | < 10 nM | 2010 nM |  |  |
| O=[N+]([O-])c1ccc2c(c1Oc1cncc(-c3ccccc3)c1)CCC2OP(=O)(N1CC1)N1CC1 (stereo not shown) [Example 311] | < 10 nM | 485 nM |  |  |
| O=[N+]([O-])c1ccc2c(c1Oc1ccc(F)c(-c3ccccc3)c1)CC[C@H]2OP(=O)(N1CC1)N1CC1 [Example 313] | < 10 nM | 1260 nM |  |  |
